Laboratory results reported in ChEMBL document CHEMBL1145916, “A method for designing conformationally restricted analogues based on allylic strain: synthesis of a novel class of noncompetitive NMDA receptor antagonists having the acrylamide structure” (J Med Chem, 2003).

Target: Glutamate NMDA receptor
Assay: Binding affinity for N-methyl-D-aspartate glutamate receptor of cerebral cortical synaptic membranes from rats using [3H]MK-801 as radioligand

SMILES: CCN(CC)C(=O)[C@@]1(c2ccccc2)C[C@H]1C1CCCN1 (stereo not given in full)
- IC50: 1 µM

SMILES: CCCN(CCC)C(=O)/C(=C\C1CCCN1)c1ccccc1 (stereo not given)
- IC50: 0.54 µM

SMILES: C=C(C)CN(CC)C(=O)/C(=C\C1CCCN1)c1ccccc1 (stereo not given)
- IC50: 0.52 µM

SMILES: CCCN(CC1CC1)C(=O)/C(=C\C1CCCN1)c1ccccc1 (stereo not given)
- IC50: 0.74 µM

SMILES: CCCN(CCC)C(=O)/C(=C\C1CCCN1)c1ccc(C)cc1 (stereo not given)
- IC50: > 1000 µM

SMILES: CCCN(CCC)C(=O)/C(=C\C1CCCN1)c1ccccc1F (stereo not given)
- IC50: 1.7 µM

SMILES: CCCN(CCC)C(=O)/C(=C\C(N)CC)c1ccccc1 (stereo not given)
- IC50: 0.53 µM

SMILES: CCCCN(CCCC)C(=O)/C(=C\C1CCCN1)c1ccccc1 (stereo not given)
- IC50: 4.2 µM

SMILES: O=C(/C(=C\C1CCCN1)c1ccccc1)N1CCNCC1 (stereo not given)
- IC50: > 1000 µM

SMILES: O=C(/C(=C\C1CCCN1)c1ccccc1)N1CCCCCC1 (stereo not given)
- IC50: 16 µM

SMILES: CCCN(CCC)C(=O)/C(=C\C1CCCN1)c1cccc(F)c1 (stereo not given)
- IC50: 0.42 µM

SMILES: CCCN(CCC)C(=O)/C(=C\C1CCCN1)c1ccc(F)cc1 (stereo not given)
- IC50: 13 µM

SMILES: CCN(CC)C(=O)/C(=C\C1CCCN1)c1ccccc1 (stereo not given)
- IC50: 3.6 µM

SMILES: CC[C@H](N)[C@@H]1C[C@@]1(C(=O)N(CC)CC)c1ccccc1
- IC50: 0.2 µM

SMILES: CCCN(CCC)C(=O)/C(=C\C1CCCN1)c1ccc(OC)cc1 (stereo not given)
- IC50: 160 µM
